Measured values as given in US20090317373A1, “Inhibition of the Anti-FVIII Immune Response” (Institut National De La Sante Et De La Recherche Medicale, priority 2005, published 2009).

Columns and labels:
[1] = test system: D9E9 (T cell clone specific for FVIII); assay: In vitro activation of FVIII-specific T cell clone D9E9 (IFN-gamma production); assay type: cell-based, human
Description: After washing, the DCs of Example 1 were resuspended in DMEM:F12 (1:1) medium containing 10% FCS and 10,000 DCs were introduced into each well of a 96-well cell culture plate with a round base. After incubation with mannan (1 mg/ml) in each well for 30 min, the DCs were cultured with 5,000 D9E9 (T cell clone specific for FVIII) in DMEM:F12 (1:1) medium containing 10% FCS and 20 U/ml of rhIL-2 with various doses of whole FVIII or FVIII-BDD (10, 8, 6, 4, 2 μg/ml) for 20 hours at 37° C. Like the D9E9 cells, the LE2E9 and BO2C11 lines of B cells transformed by EBV were cultured in the presence of 10 μg/ml of whole FVIII or FVIII-BDD. The control conditions were maintained in the absence of FVIII, D9E9 or DCs. As a negative control, hrFIX (Benefix, Baxter) was incubated with the cells at isomolar concentrations of FVIII. The supernatants were harvested at the end of the incubation period and tested for their production of IFNγ using the human IFN-γ Duo Set (DY285, R&D Systems) in accordance with the manufacturer's instructions.

[2] = test system: DCs according to Example 1; assay: Internalization of demannosylated FVIII-BDD-FITC by DCs (FACS); assay type: cell-based, human
Description: Finally, the inhibition of the internalization of demannosylated FVIII-BDD labelled with FITC was measured. FVIII-BDD conjugated to FITC and treated with EndoF1 (0.143 μM) or untreated is incubated with DCs according to Example 1 (4×10^5 cells/well of 100 μl) in X-VIVO medium without serum at 37° C. or at 4° C. Beforehand, the cells were preincubated, where appropriate, with mannan (1 mg/ml) for 30 min at 37° C. After incubation for 2 hours, the cells are washed and the mean intensities (mfi) are measured by FACS. The internalization of FVIII-BDD is expressed with respect to the calculated mfi in the presence of untreated FVIII alone (cf. FIG. 8).

[3] = target: T1, CTLD(4-7)-Fc (construct of the mannose receptor) (Mus musculus, UniProt Q61830); assay: ELISA binding of mannose receptor construct CTLD(4-7)-Fc to coated ligands; conditions: ELISA plates coated with ligand; FIG. 3c
T1 construct: gift of Dr Luisa Martinez-Pomares, University of Nottingham
T1 sequence (Q61830 with tags, fused parts or gaps limits assumed): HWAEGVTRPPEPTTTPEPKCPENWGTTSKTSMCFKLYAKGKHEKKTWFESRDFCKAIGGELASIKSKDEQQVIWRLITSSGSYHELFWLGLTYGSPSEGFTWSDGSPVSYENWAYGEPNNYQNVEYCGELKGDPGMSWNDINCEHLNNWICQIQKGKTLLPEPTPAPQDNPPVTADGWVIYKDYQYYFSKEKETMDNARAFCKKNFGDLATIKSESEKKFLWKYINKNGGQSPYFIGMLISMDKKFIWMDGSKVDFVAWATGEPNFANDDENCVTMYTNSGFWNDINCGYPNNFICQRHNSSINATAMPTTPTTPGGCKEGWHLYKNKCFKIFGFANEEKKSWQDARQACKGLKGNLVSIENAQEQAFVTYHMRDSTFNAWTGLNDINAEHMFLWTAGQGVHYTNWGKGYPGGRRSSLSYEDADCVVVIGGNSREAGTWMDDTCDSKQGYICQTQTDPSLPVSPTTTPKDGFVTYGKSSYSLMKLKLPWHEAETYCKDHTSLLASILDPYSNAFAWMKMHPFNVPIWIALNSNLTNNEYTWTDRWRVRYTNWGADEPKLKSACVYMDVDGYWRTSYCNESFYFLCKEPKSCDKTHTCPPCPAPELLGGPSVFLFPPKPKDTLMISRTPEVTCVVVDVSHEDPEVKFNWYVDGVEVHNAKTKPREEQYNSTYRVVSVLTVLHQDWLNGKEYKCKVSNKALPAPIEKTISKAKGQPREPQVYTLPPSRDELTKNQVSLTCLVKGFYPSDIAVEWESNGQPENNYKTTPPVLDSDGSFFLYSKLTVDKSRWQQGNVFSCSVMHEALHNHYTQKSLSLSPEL
Description: Constructs of the mannose receptor, CTLD(4-7)-FC and CR-FNII-CTLD(1-3)-CR-Fc, were kindly donated by Dr Luisa Martinez-Pomares, School of Molecular Medical Sciences, Queen's Medical Centre, University of Nottingham, UK. The binding of the constructs to whole recombinant human FVIII and to B domain-deleted recombinant human FVIII was tested either directly by measuring the binding to ELISA plates coated with ligands (mannan was used as a positive control) or indirectly by inhibition tests. The ELISA plates (Nunc; MAXISORP) were coated overnight with dilution series of the FVIII forms (starting at 50 μg/ml) in 154 mM NaCl. TTBS buffer (Tris-HCl 10 mM, pH 7.5, Ca^2+ 10 mM, NaCl 154 mM and 0.05% Tween-20) was used for all the washings. The non-reactive sites were blocked by TBS buffer (TTBS without Tween-20) containing 3% BSA. The plates were then incubated with 2 or 10 μg/ml of the constructs for 2 h at room temperature in TTBS buffer containing 3% BSA. The binding of the MR constructs was detected using a mouse antibody specific for the Fc part of human IgG conjugated to HRP (clone JDC-10, Southern Biotechnology Associates, Inc. AL, USA). […] The absorbance was measured at 492 nm. For the inhibition tests, the plates were coated with each form of FVIII (5.56 μg/ml). […] The absorbance was measured as described above. […]

mannan
inhibition of FVIII-induced activation of D9E9 cells ([1]; DCs preincubated with mannan (1 mg/ml), FIG. 4b (B)): up to 84%
activation of D9E9 cells by autologous B cells pulsed with FVIII, LE2E9 ([1]; in presence of mannan, FIG. 4b (C)): does not prevent activation
further reduction of internalization of EndoF1-treated FVIII ([2]; in the presence of mannan, results not shown): 32%
inhibition of the internalization of FVIII-BDD ([2]; with mannan (1 mg/ml), without deglycosylation, FIG. 8): 45±7%
binding to CTLD(4-7)-Fc [3]: specific binding
